Several values for one entry are separate records, joined by “and”; a condition that tells them apart may be missing. Identical values can stand only once. Like-named read-outs stand apart in the source and are kept apart here.
Legend:
wild-type Pcs60 = wild-type Pcs60 (Saccharomyces cerevisiae, UniProt P38137); assay: biochemical; format: binding, S. cerevisiae
Procedure: (§1) The following protocol was used for all nDSF experiments with Pcs60 and the nucleotide ligand γS-ATP. 14 dilutions of the nucleotide ligand (γS-ATP) starting at 5 mM at a constant Pcs60 concentration of 9.9 μM were prepared in buffer (50 mM HEPES pH 7.5, 150 mM NaCl, 0.5 mM TCEP). […] In addition to the ligand dilutions, a pure Pcs60 sample in the same buffer was used. If not stated otherwise, the measurements were run as triplicates (in total 45 temperature curves). The LED laser power for the experiments was between 70 and 80%.
Figure S29. (A) nDSF binding study for wild-type Pcs60 WT/γS-ATP. The region in the colored box was used for isothermal
analysis. […] (C) Isothermal analysis for […]

Pcs60 [1] = target: T1, Pcs60 (Saccharomyces cerevisiae, UniProt P38137); format: binding, S. cerevisiae; settings: read-out: Kd (MST); Tref 21 °C; 1:1 model
Procedure: MST curves for Pcs60/ γ S-ATP were acquired with a Nanotemper Monolith NT.LabelFree (Nanotemper) using the MO.Control v1.6 acquisition software and Monolith NT.LabelFree capillaries. The same protein concentration and buffer conditions as for the nDSF experiments were used (9.9 μM). 16 different ligand concentrations (serial dilution with a factor of 2) in the range between 5 mM and 0.15 μM were used for each measurement. For the MST experiment the IR laser power was set to 20% and the UV laser power to 1%. In total, two independent measurements were done plus an additional repeat. The data was exported as xlsx and analyzed and plotted with a self-written Python script. The regions for Fnorm determination were − 1–0 s for “cold” and 19–20 s for “hot”. For each curve Fnorm was calculated as the ratio between the mean values in the “hot” and “cold” region. In the final step, Fnorm was fitted to a 1:1 binding model. The self-written Python scripts for spectral analysis including MST analysis are available online: https://github.com/steniegit/libspec

Pcs60 [2] = target: T1, Pcs60; format: binding, S. cerevisiae
Pcs60 K523A mutant = Pcs60 K523A mutant (Saccharomyces cerevisiae, UniProt P38137, K523A); assay: biochemical; format: binding, S. cerevisiae
Procedure: as §1

Pcs60 [3] = target: T1, Pcs60; assay: Differential scanning calorimetry (DSC) of Pcs60 with γS-ATP; format: binding, S. cerevisiae; settings: Pcs60 180 µM, γS-ATP 192 µM
Procedure: 2Differential scanning calorimetry of Pcs60
Figure S24. Differential scanning calorimetry (DSC) of Pcs60 (180 µM) in absence and presence of its ligand γS-ATP (192 µM). Here the raw data is shown before baseline correction. […] The […]
temperature of the ﬁrst transition is shifted by ligand binding from 41.5 to 43.4◦C. […]
affected upon ligand binding. Since the two transitions overlap, it was not possible to extract a reliable value of the heat capacity change upon unfolding ∆Cp.
(also on this page, place not known: 2 30 40 50 60 70 Temperature / C 11 10 9 8 7 6 DP / mJ/min PCS60 PCS60 + S-ATP Differential)
(1 picture or pasted object on this page, not shown here)

SS1 = SS1 (Danio rerio, UniProt A0A0R4IMY7); format: binding, zebrafish
EG1 = EG1 (Homo sapiens, UniProt Q9BW91); format: binding; settings: ADPR 2 mM to 24 nM
EG1, sequence (Q9BW91 59-350): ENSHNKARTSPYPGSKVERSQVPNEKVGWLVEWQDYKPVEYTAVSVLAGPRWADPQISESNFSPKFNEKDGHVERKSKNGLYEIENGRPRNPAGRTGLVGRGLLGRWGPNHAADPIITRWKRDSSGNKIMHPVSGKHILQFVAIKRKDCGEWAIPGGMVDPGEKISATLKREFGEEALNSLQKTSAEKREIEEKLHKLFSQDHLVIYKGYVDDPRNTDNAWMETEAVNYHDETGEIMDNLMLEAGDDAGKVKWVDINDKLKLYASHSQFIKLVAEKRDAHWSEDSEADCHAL

T1 sequence (P38137 whole entry): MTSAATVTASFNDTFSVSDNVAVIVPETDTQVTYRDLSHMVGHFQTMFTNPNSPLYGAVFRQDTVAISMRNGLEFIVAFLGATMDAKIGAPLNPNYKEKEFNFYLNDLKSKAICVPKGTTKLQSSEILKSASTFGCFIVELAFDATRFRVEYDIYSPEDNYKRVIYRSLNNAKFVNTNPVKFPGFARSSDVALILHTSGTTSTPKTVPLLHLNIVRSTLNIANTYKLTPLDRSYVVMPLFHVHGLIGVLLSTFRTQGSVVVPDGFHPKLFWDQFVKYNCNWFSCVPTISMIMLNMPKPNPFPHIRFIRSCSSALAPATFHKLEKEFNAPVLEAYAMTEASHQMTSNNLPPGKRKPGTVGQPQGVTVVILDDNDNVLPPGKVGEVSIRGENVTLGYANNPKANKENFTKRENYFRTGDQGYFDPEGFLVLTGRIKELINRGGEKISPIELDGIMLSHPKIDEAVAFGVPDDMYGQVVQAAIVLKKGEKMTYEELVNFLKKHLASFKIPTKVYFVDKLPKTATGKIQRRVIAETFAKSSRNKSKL
wild-type Pcs60, sequence (P38137 whole entry): as above
Pcs60 K523A mutant, sequence (P38137 whole entry K523A): as the sequence (P38137 whole entry) above, with K523A counted along it
SS1, sequence (A0A0R4IMY7 32-415): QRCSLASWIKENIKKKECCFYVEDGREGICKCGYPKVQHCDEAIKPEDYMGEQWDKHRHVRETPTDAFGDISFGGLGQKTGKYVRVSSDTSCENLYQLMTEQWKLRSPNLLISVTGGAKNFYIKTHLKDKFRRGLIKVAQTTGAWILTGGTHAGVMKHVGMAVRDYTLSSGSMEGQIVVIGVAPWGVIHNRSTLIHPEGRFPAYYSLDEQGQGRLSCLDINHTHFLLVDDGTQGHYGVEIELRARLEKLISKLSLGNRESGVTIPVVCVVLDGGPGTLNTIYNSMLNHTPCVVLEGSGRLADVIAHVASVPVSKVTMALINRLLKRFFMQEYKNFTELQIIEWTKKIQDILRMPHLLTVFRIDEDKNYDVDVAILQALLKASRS

Nc1ncnc2c1ncn2[C@@H]1O[C@H](CO[P@](=O)(O)O[P@](=O)(O)O[P@@](=O)(O)S)[C@@H](O)[C@H]1O [γS-ATP]
Kd (wild-type Pcs60; T=36 °C, ∆Cp = 0, read-out: Kd (isothermal analysis)): 19.7 µM
Kd (wild-type Pcs60; T=38 °C, ∆Cp = 0, read-out: Kd (isothermal analysis)): 20.2 µM
Kd (wild-type Pcs60; T=40 °C, ∆Cp = 0, read-out: Kd (isothermal analysis)): 21 µM
Kd (wild-type Pcs60; T=42 °C, ∆Cp = 0, read-out: Kd (isothermal analysis)): 22.5 µM
Kd (wild-type Pcs60; T=44 °C, ∆Cp = 0, read-out: Kd (isothermal analysis)): 24.9 µM
Kd (wild-type Pcs60; T=46 °C, ∆Cp = 0, read-out: Kd (isothermal analysis)): 28.7 µM
Kd (wild-type Pcs60; T=48 °C, ∆Cp = 0, read-out: Kd (isothermal analysis)): 39.5 µM
Kd (wild-type Pcs60; T=50 °C, ∆Cp = 0, read-out: Kd (isothermal analysis)): 78 µM
Kd (wild-type Pcs60; T=52 °C, ∆Cp = 0, read-out: Kd (isothermal analysis)): 146 µM
Kd (wild-type Pcs60; isothermal analysis, read-out: Kd values (summary in legend)): ~20 µM
Kd (wild-type Pcs60; read-out: Kd,app Model 1 (melting temperature analysis)): 195 µM
Kd (wild-type Pcs60; read-out: Kd,app Model 2 (melting temperature analysis)): 15.6 µM
Kd (Pcs60 [1]): 16 µM
Kd (Pcs60 [2]; T=36 °C, fitted ∆Cp = 6.7 kcal/molK, read-out: Kd (isothermal analysis, fitted ∆Cp)): 14.9 µM
Kd (Pcs60 [2]; T=38 °C, fitted ∆Cp = 6.7 kcal/molK, read-out: Kd (isothermal analysis, fitted ∆Cp)): 15.4 µM
Kd (Pcs60 [2]; T=40 °C, fitted ∆Cp = 6.7 kcal/molK, read-out: Kd (isothermal analysis, fitted ∆Cp)): 17.1 µM
Kd (Pcs60 [2]; T=42 °C, fitted ∆Cp = 6.7 kcal/molK, read-out: Kd (isothermal analysis, fitted ∆Cp)): 21.9 µM
Kd (Pcs60 [2]; T=44 °C, fitted ∆Cp = 6.7 kcal/molK, read-out: Kd (isothermal analysis, fitted ∆Cp)): 32.4 µM
Kd (Pcs60 [2]; T=46 °C, fitted ∆Cp = 6.7 kcal/molK, read-out: Kd (isothermal analysis, fitted ∆Cp)): 41.1 µM
Kd (Pcs60 [2]; T=48 °C, fitted ∆Cp = 6.7 kcal/molK, read-out: Kd (isothermal analysis, fitted ∆Cp)): 27.8 µM
Kd (Pcs60 [2]; Tiso 40 °C, ∆Cp = 0, read-out: Kd (isothermal analysis of nDSF)): 18.4 µM
Tm (melting temperature range of binding study) (Pcs60 [2]; first transition): 37–48 °C
Kd (Pcs60 [2]; heating rate 1 °C/min, ∆Cp default 0 kcal/mol, Tsel 40 °C, read-out: Kd,Tsel): 18 µM
Kd (Pcs60 [2]; heating rate 1 °C/min, ∆Cp fitted 6.7 kcal/mol, Tsel 38 °C, read-out: Kd,Tsel): 17 µM
Kd (Pcs60 [2]; heating rate 3 °C/min, ∆Cp default 0 kcal/mol, Tsel 39 °C, read-out: Kd,Tsel): 16 µM
Kd (Pcs60 [2]; heating rate 3 °C/min, ∆Cp fitted 6.7 kcal/mol, Tsel 39 °C, read-out: Kd,Tsel): 19 µM
Kd (Pcs60 [2]; heating rate 5 °C/min, ∆Cp default 0 kcal/mol, Tsel 39 °C, read-out: Kd,Tsel): 23 µM
Kd (Pcs60 [2]; heating rate 5 °C/min, ∆Cp fitted 6.7 kcal/mol, Tsel 40 °C, read-out: Kd,Tsel): 24 µM
Kd (Pcs60 [2]; read-out: Kd,app,model1 (melting temperature analysis), single-site model, Eq. (1), first transition): 144 µM
Kd (Pcs60 [2]; read-out: Kd,app,model2 (melting temperature analysis), model 2, Eq. (4), first transition): 10.2 µM
Kd (Pcs60 K523A mutant; Kd (isothermal analysis)): 252 µM and 297 µM and 246 µM and 236 µM and 227 µM and 219 µM and 212 µM and 221 µM
Kd (Pcs60 K523A mutant; read-out: Kd (isothermal analysis of nDSF)): 213 µM
Kd (Pcs60 K523A mutant; read-out: Kd, melting temperature analysis model 1): 741 µM
Kd (Pcs60 K523A mutant; read-out: Kd, melting temperature analysis model 2): 117 µM
second transition at […] (DSC) upon ligand binding (Pcs60 [3]): not
temperature of the first transition (DSC) upon ligand binding (Pcs60 [3]; 41.5 °C in absence of ligand): 43.4 °C

adenosine diphosphate ribose [ADPR]
Tm (melting temperature range of binding study) (SS1): 50–60 °C
Tm (melting temperature range of binding study) (EG1): 51–56 °C
